In patent US20200237863A1, “Combination Therapy of Fractionated Radiation and SAPC-DOPS for the Treatment of Tumors” (University of Cincinnati, priority 2017, published 2020):
Residues, ends and D or L forms follow the SMILES beside them. *: point of attachment. Cbz = O=C(OCc1ccccc1)*; CH2F = FC*

What was measured:
[1] = tested on: cfPac-1 cells; test: Flow cytometric analysis of Annexin V-FITC binding (surface PS) after irradiation; type: cell-based, human; settings: cfPac-1 cells irradiated at 10 Gy, 10 μM Z-VAD-fmk, assessed 24 hr later
Experimental: Unless otherwise stated, cells at 60-80% confluency were irradiated and then, after the appropriate time, were trypsinized, resuspended in complete medium, spun down, and washed once with PBS then resuspended in annexin V staining buffer. Cells (1×10^5) were incubated at room temperature in the dark for 15 minutes in a final volume of 100 μl containing 10 μl Annexin V-FITC (Invitrogen, Carlsbad, Calif.) and 2 μg/ml propidium iodide (PI, BD-Pharmingen, Eugene, Oreg.). Annexin V-FITC binding was measured by flow cytometry after adding 400 μl of annexin V binding buffer, using a BD Fortessa. Data was analyzed with BD FACS Diva. For quantifying the annexin V-FITC signal from living cells, PI positive dead cells were gated out and the annexin V-FITC signal was obtained from PI negative forward scattered, cells.
Cells were grown to 60-80% confluence in 60 mm dishes then exposed to (^137Cs) irradiation with a GammaCell 40 Exactor (Nordion international) at doses of 0, 2, 6, 10 or 16 Gy. The media was changed and the cells were processed for surface PS determination at the indicated times. Mice were irradiated at 10 Gy with an Xstrahl D3100 superficial systems (at 100 kV) with 2 cm cone and projected 1 cm deep.

[2] = tested on: A2058, cfPac-1 and U87MG cell lines; test: Cell viability (MTT) assay of serially irradiated cells treated with chemotherapeutic drugs; type: cell-based, human; settings: 5 Gy weekly for multiple weeks, drug 7 days after last irradiation, MTT 72 hr later
Experimental: Non serially-irradiated cells are designated R0. Media was changed immediately after the irradiation and the cells were split every 3-4 days. Treatments were given 4-7 days following the last 5 Gy irradiation, when the surface PS is still elevated. A) Timeline of the treatment regime. B) Surface PS was determined by Annexin V-FITC staining on Day 4 following the last 5 Gy irradiation. Rx; x=15 for A2058 and 10 for cfPac-1 and U87MG. * p<0.05, ** p<0.01 compared to R0. Shown are the mean and S.D. C-E) Cells were serially irradiated with 5 Gy. (top panel, A2058 cells; middle panel, cfPac-1 cells; bottom panel, U87MG cells) C) 7 days later they were exposed to the indicated doses of radiation and cell viability was determined by MTT assay was performed 72 hr. later. Shown is the % of live cells with 100% as the normalized control for each cell line, * p<0.05. ** p<0.01, compared to R0. D) 7 days after the last 5 Gy irradiation, cells were treated with different doses of gemcitabine (GEM) temozolomide (TMZ) or cisplatin and cell viability was determined by MTT assay was performed 72 hr. later. * p<0.05, ** p<0.01, compared to R0 at the same dose of drug. E.) 7 days following the last 5 Gy irradiation, cells were treated with the indicated doses of SapC-DOPS (1 SapC:7 DOPS, Mol:Mol) and cell viability was determined by MTT assay was performed 72 hr. later. […]

| SMILES | radiation-induced surface PS elevation (Annexin V binding) [1] | sensitivity of serially irradiated cells to chemotherapeutic drugs (MTT cell viability) compared to R0 [2] |
| --- | --- | --- |
| COC(=O)C[C@H](NC(=O)[C@H](C)NC(=O)[C@@H](NC(=O)OCc1ccccc1)C(C)C)C(=O)CF [Z-VAD fmk] (Cbz-Val-Ala-Asp(OMe)-CH2F) | completely eliminated the radiation-induced surface PS elevation |  |
| N.N.[Cl][Pt][Cl] [cisplatin] |  | more resistant |
| Nc1ccn([C@@H]2O[C@H](CO)[C@@H](O)C2(F)F)c(=O)n1 [gemcitabine] |  | more resistant |
